{
  "source": "patent US12252488B2",
  "about": "(Nimbus Saturn, Inc., priority 2021, dated 2025)",
  "data": [
    {"biological_target": "T1, HPK1 (Homo sapiens, UniProt Q92918)", "T1 construct": "purchased Invitrogen", "T1 sequence (Q92918 whole entry)": "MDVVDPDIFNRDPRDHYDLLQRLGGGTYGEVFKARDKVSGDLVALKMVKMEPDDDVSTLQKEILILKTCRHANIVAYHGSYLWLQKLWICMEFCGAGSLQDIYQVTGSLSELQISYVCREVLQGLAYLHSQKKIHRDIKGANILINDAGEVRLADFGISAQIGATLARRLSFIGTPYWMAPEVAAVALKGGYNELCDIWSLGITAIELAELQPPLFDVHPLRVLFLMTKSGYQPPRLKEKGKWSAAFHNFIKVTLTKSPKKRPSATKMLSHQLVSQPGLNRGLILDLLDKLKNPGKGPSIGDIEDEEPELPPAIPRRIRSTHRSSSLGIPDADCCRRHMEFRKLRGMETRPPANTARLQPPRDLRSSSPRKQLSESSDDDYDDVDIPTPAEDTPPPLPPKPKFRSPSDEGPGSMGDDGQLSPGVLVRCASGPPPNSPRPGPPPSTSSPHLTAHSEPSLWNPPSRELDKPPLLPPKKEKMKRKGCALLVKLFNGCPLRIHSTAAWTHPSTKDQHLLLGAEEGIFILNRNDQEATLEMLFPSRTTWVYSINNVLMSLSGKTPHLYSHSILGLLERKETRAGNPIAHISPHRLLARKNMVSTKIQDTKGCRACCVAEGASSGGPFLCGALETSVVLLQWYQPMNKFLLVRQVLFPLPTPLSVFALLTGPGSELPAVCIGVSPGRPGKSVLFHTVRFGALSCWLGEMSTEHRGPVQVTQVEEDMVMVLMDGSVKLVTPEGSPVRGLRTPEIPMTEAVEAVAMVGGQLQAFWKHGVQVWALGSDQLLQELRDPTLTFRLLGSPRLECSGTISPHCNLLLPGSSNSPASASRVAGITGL", "assay": "HPK1 biochemical enzyme assay (microfluidic mobility shift assay)", "conditions": "1000 uM (1 mM) ATP; Caliper mobility shift; 1.5 nM HPK1; 30 min preincubation; read-out: HPK1 1000UMATP caliper IC50", "summary_of_the_method": "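IC50 values, grouped into activity categories, come from 10-point titrations (top final 3 μM) preincubated 30 min with 1.5 nM enzyme and substrate at pH 7.4. ATP (1 mM), substrate (1 μM) and MgCl2 (5 mM) then added; after 60 min at RT, product separated by microfluidic mobility shift.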", "units": {"IC50": "nM"}, "values": [
      {"compound": "O=c1[nH]ccc2nc(-c3cc(OC(F)(F)F)ccc3F)cc(Nc3ccc(N4CCC(O)CC4)cn3)c12", "note": "[I-106, 2-[2-fluoro-5-(trifluoro-methoxy)phenyl]-4-[[5-(4-hydroxy-1-piperidyl)-2-pyridyl]amino]-6H-1,6-naphthyridin-5-one]", "IC50": "≤ 100"},
      {"compound": "O=c1[nH]ccc2nc(-c3cc4cc[nH]c4cc3F)cc(Nc3ccc(N4CCC(O)CC4)cn3)c12", "note": "[I-107, 2-(6-fluoro-1H-indol-5-yl)-4-[[5-(4-hydroxy-1-piperidyl)-2-pyridyl]amino]-6H-1,6-naphthyridin-5-one]", "IC50": "100 to 1000"},
      {"compound": "CN(C(=O)C1CC1)c1ccc(-c2cc(Nc3ccc(N4CCC(O)CC4)cn3)c3c(=O)[nH]ccc3n2)c(F)c1", "note": "[I-108, N-[3-fluoro-4-[4-[[5-(4-hydroxy-1-piperidyl)-2-pyridyl]amino]-5-oxo-6H-1,6-naphthyridin-2-yl]phenyl]-N-methyl-cyclopropane-carboxamide]", "IC50": "≤ 100"},
      {"compound": "CC(C)c1ccc(F)c(-c2cc(Nc3ccc(N4CCN(C)CC4)cn3)c3c(=O)[nH]ccc3n2)c1", "note": "[I-109, 2-(2-fluoro-5-isopropyl-phenyl)-4-[[5-(4-methyl-piperazin-1-yl)-2-pyridyl]amino]-6H-1,6-naphthyridin-5-one]", "IC50": "≤ 100"},
      {"compound": "CC(C)c1ccc(F)c(-c2cc(Nc3ccc(N4CCNCC4)cn3)c3c(=O)[nH]ccc3n2)c1", "note": "[I-110, 2-(2-fluoro-5-isopropyl-phenyl)-4-[(5-piperazin-1-yl-2-pyridyl)amino]-6H-1,6-naphthyridin-5-one]", "IC50": "≤ 100"},
      {"compound": "O=C(Nc1ccc(-c2cc(Nc3ccc(N4CCC(O)CC4)cn3)c3c(=O)[nH]ccc3n2)c(F)c1)C1CCCCC1", "note": "[I-111, N-[3-fluoro-4-[4-[[5-(4-hydroxy-1-piperidyl)-2-pyridyl]amino]-5-oxo-6H-1,6-naphthyridin-2-yl]phenyl] cyclohexane carboxamide]", "IC50": "> 1000"},
      {"compound": "COc1cc(-c2cc(Nc3ccc(N4CCC(O)CC4)cn3)c3c(=O)[nH]ccc3n2)c(F)cc1C(=O)N1CCCCC1", "note": "[I-112, 2-[2-fluoro-5-methoxy-4-(piperidine-1-carbonyl)phenyl]-4-[[5-(4-hydroxy-1-piperidyl)-2-pyridyl]amino]-6H-1,6-naphthyridin-5-one]", "IC50": "> 1000"},
      {"compound": "Cc1c(C(=O)N2CCCCC2)ccc(-c2cc(Nc3ccc(N4CCC(O)CC4)cn3)c3c(=O)[nH]ccc3n2)c1F", "note": "[I-113, 2-[2-fluoro-3-methyl-4-(piperidine-1-carbonyl)phenyl]-4-[[5-(4-hydroxy-1-piperidyl)-2-pyridyl]amino]-6H-1,6-naphthyridin-5-one]", "IC50": "100 to 1000"},
      {"compound": "Cc1cc(-c2cc(Nc3ccc(N4CCC(O)CC4)cn3)c3c(=O)[nH]ccc3n2)c(F)cc1C(=O)N1CCCCC1", "note": "[I-114, 2-[2-fluoro-5-methyl-4-(piperidine-1-carbonyl)phenyl]-4-[[5-(4-hydroxy-1-piperidyl)-2-pyridyl]amino]-6H-1,6-naphthyridin-5-one]", "IC50": "≤ 100"},
      {"compound": "O=C(c1ccc(-c2cc(Nc3ccc(N4CCC(O)CC4)cn3)c3c(=O)[nH]ccc3n2)c(F)c1)N1CCCC1", "note": "[I-115, 2-[2-fluoro-4-(pyrrolidine-1-carbonyl)phenyl]-4-[[5-(4-hydroxy-1-piperidyl)-2-pyridyl]amino]-6H-1,6-naphthyridin-5-one]", "IC50": "≤ 100"},
      {"compound": "CC(C)(O)c1ccc(F)c(-c2cc(Nc3ccc(N4CCC(O)CC4)cn3)c3c(=O)[nH]ccc3n2)c1", "note": "[I-116, 2-[2-fluoro-5-(1-hydroxy-1-methyl-ethyl)phenyl]-4-[[5-(4-hydroxy-1-piperidyl)-2-pyridyl]amino]-6H-1,6-naphthyridin-5-one]", "IC50": "100 to 1000"},
      {"compound": "CN(C)Cc1ccc(F)c(-c2cc(Nc3ccc(N4CCC(O)CC4)cn3)c3c(=O)[nH]ccc3n2)c1", "note": "[I-117, 2-[5-[(dimethyl-amino)methyl]-2-fluoro-phenyl]-4-[[5-(4-hydroxy-1-piperidyl)-2-pyridyl]amino]-6H-1,6-naphthyridin-5-one]", "IC50": "100 to 1000"},
      {"compound": "O=c1[nH]ccc2nc(-c3cc4[nH]ccc4cc3F)cc(Nc3ccc(N4CCC(O)CC4)cn3)c12", "note": "[I-118, 2-(5-fluoro-1H-indol-6-yl)-4-[[5-(4-hydroxy-1-piperidyl)-2-pyridyl]amino]-6H-1,6-naphthyridin-5-one]", "IC50": "100 to 1000"},
      {"compound": "O=C(c1ccc(-c2cc(Nc3ccc(N4CCC(O)CC4)cn3)c3c(=O)[nH]ccc3n2)c(F)c1)N1CCNCC1", "note": "[I-119, 2-[2-fluoro-4-(piperazine-1-carbonyl)phenyl]-4-[[5-(4-hydroxy-1-piperidyl)-2-pyridyl]amino]-6H-1,6-naphthyridin-5-one]", "IC50": "100 to 1000"},
      {"compound": "O=C(c1ccc(-c2cc(Nc3ccc(N4CCC(O)CC4)cn3)c3c(=O)[nH]ccc3n2)c(F)c1)N1CCOCC1", "note": "[I-120]", "IC50": "100 to 1000"},
      {"compound": "CC(C)c1ccc(F)c(-c2cc(Nc3ccc(N4CCC5(CCOCC5)CC4)cn3)c3c(=O)[nH]ccc3n2)c1", "note": "[I-121, 2-(2-fluoro-5-isopropyl-phenyl)-4-[[5-(3-oxa-9-azaspiro [5.5]undecan-9-yl)-2-pyridyl]amino]-6H-1,6-naphthyridin-5-one]", "IC50": "≤ 100"},
      {"compound": "CC(C)c1ccc(F)c(-c2cc(Nc3ccc(N4[C@H](C)COC[C@H]4C)cn3)c3c(=O)[nH]ccc3n2)c1", "note": "[I-122, 4-[[5-[(3R,5R)-3,5-dimethyl-morpholin-4-yl]-2-pyridyl]amino]-2-(2-fluoro-5-isopropyl-phenyl)-6H-1,6-naphthyridin-5-one]", "IC50": "100 to 1000"},
      {"compound": "CC(O)(c1ccc(F)c(-c2cc(Nc3ccc(N4CCC(O)CC4)cn3)c3c(=O)[nH]ccc3n2)c1)C(F)(F)F", "note": "(stereo not shown) [I-123, 2-[2-fluoro-5-(2,2,2-trifluoro-1-hydroxy-1-methyl-ethyl)phenyl]-4-[[5-(4-hydroxy-1-piperidyl)-2-pyridyl]amino]-6H-1,6-naphthyridin-5-one]", "IC50": "≤ 100"},
      {"compound": "O=C(c1ccc(-c2cc(Nc3ccc(N4CCC(O)CC4)cn3)c3c(=O)[nH]ccc3n2)c(F)c1)N1CC2CCC1CC2", "note": "[I-124, 2-[4-(3-azabicyclo [2.2.2]octane-3-carbonyl)-2-fluoro-phenyl]-4-[[5-(4-hydroxy-1-piperidyl)-2-pyridyl]amino]-6H-1,6-naphthyridin-5-one]", "IC50": "100 to 1000"},
      {"compound": "COC(=O)c1ccc(-c2cc(Nc3ccc(N4CCC(O)CC4)cn3)c3c(=O)[nH]ccc3n2)c(F)c1", "note": "[I-125, Methyl 3-fluoro-4-[4-[[5-(4-hydroxy-1-piperidyl)-2-pyridyl]amino]-5-oxo-6H-1,6-naphthyridin-2-yl]benzoate]", "IC50": "≤ 100"},
      {"compound": "O=C(c1ccc(-c2cc(Nc3ccc(N4CCC(O)CC4)cn3)c3c(=O)[nH]ccc3n2)c(F)c1)N1CCC1", "note": "[I-126, 2-[4-(azetidine-1-carbonyl)-2-fluoro-phenyl]-4-[[5-(4-hydroxy-1-piperidyl)-2-pyridyl]amino]-6H-1,6-naphthyridin-5-one]", "IC50": "100 to 1000"},
      {"compound": "O=c1[nH]ccc2nc(-c3ccc(CN4CCCCC4)cc3F)cc(Nc3ccc(N4CCC(O)CC4)cn3)c12", "note": "[I-127]", "IC50": "100 to 1000"},
      {"compound": "CCNC(=O)C(C)(C)c1ccc(Nc2cc(-c3cc(C(C)C)ccc3F)nc3cc[nH]c(=O)c23)nc1", "note": "[I-128, N-ethyl-2-[6-[[2-(2-fluoro-5-isopropyl-phenyl)-5-oxo-6H-1,6-naphthyridin-4-yl]amino]-3-pyridyl]-2-methyl-propanamide]", "IC50": "100 to 1000"},
      {"compound": "CC(C)c1ccc(F)c(-c2cc(Nc3ccc(N4[C@@H](C)COC[C@@H]4C)cn3)c3c(=O)[nH]ccc3n2)c1", "note": "[I-129, 4-[[5-[(3S,5S)-3,5-dimethyl-morpholin-4-yl]-2-pyridyl]amino]-2-(2-fluoro-5-isopropyl-phenyl)-6H-1,6-naphthyridin-5-one]", "IC50": "100 to 1000"},
      {"compound": "CC1CCCCN1C(=O)c1ccc(-c2cc(Nc3ccc(N4CCC(O)CC4)cn3)c3c(=O)[nH]ccc3n2)c(F)c1", "note": "(stereo not shown) [I-130, 2-[2-fluoro-4-(2-methyl-piperidine-1-carbonyl)phenyl]-4-[[5-(4-hydroxy-1-piperidyl)-2-pyridyl]amino]-6H-1,6-naphthyridin-5-one]", "IC50": "≤ 100"},
      {"compound": "CN1CCN(C(=O)c2ccc(-c3cc(Nc4ccc(N5CCC(O)CC5)cn4)c4c(=O)[nH]ccc4n3)c(F)c2)CC1", "note": "[I-131, 2-[2-fluoro-4-(4-methyl-piperazine-1-carbonyl)phenyl]-4-[[5-(4-hydroxy-1-piperidyl)-2-pyridyl]amino]-6H-1,6-naphthyridin-5-one]", "IC50": "100 to 1000"},
      {"compound": "N#CC1CCN(C(=O)c2ccc(-c3cc(Nc4ccc(N5CCC(O)CC5)cn4)c4c(=O)[nH]ccc4n3)c(F)c2)CC1", "note": "[I-132, 1-[3-fluoro-4-[4-[[5-(4-hydroxy-1-piperidyl)-2-pyridyl]amino]-5-oxo-6H-1,6-naphthyridin-2-yl]benzoyl] piperidine-4-carbonitrile]", "IC50": "100 to 1000"},
      {"compound": "COC1CCCN(C(=O)c2ccc(-c3cc(Nc4ccc(N5CCC(O)CC5)cn4)c4c(=O)[nH]ccc4n3)c(F)c2)C1", "note": "(stereo not shown) [I-133, 2-[2-fluoro-4-(3-methoxy-piperidine-1-carbonyl)phenyl]-4-[[5-(4-hydroxy-1-piperidyl)-2-pyridyl]amino]-6H-1,6-naphthyridin-5-one]", "IC50": "≤ 100"},
      {"compound": "O=C(O)c1ccc(-c2cc(Nc3ccc(N4CCC(O)CC4)cn3)c3c(=O)[nH]ccc3n2)c(F)c1", "note": "[I-134, 3-Fluoro-4-[4-[[5-(4-hydroxy-1-piperidyl)-2-pyridyl]amino]-5-oxo-6H-1,6-naphthyridin-2-yl]benzoic Acid]", "IC50": "≤ 100"},
      {"compound": "CC1CCCN(C(=O)c2ccc(-c3cc(Nc4ccc(N5CCC(O)CC5)cn4)c4c(=O)[nH]ccc4n3)c(F)c2)C1", "note": "(stereo not shown) [I-135, 2-[2-fluoro-4-(3-methyl-piperidine-1-carbonyl)phenyl]-4-[[5-(4-hydroxy-1-piperidyl)-2-pyridyl]amino]-6H-1,6-naphthyridin-5-one]", "IC50": "≤ 100"},
      {"compound": "COC1CCN(C(=O)c2ccc(-c3cc(Nc4ccc(N5CCC(O)CC5)cn4)c4c(=O)[nH]ccc4n3)c(F)c2)CC1", "note": "[I-136, 2-[2-fluoro-4-(4-methoxy-piperidine-1-carbonyl)phenyl]-4-[[5-(4-hydroxy-1-piperidyl)-2-pyridyl]amino]-6H-1,6-naphthyridin-5-one]", "IC50": "≤ 100"}
    ]}
  ]
}
